Values quoted from earlier work, collected in US20070134339A1, “ZONISAMIDE AND NSAID NANOPARTICULATE FORMULATIONS” (Elan Pharma International, Limited, priority 2005, published 2007).
In brackets after ≈: the same amount, converted by molar mass.

How the values were obtained:
[1] = not given; remark: listed apart in the source
[2] = not given; remark: listed apart in the source

NS(=O)(=O)Cc1noc2ccccc12 [Zonisamide, 1,2-benzisoxazole-3-methanesulfonamide]
pKa: 10.2
peak plasma concentrations ([1]; 200-400 mg oral dose, normal volunteers): 2 to 5 µg/mL
time at which peak plasma concentrations occur ([1]; 200-400 mg oral dose, normal volunteers, without food): 2 to 6 h
effect of food on bioavailability ([1]; oral, in the presence of food): no effect
time to maximum concentration ([1]; oral, in the presence of food): 4 to 6 h
solubility in 0.1 N HCl ([2]; 0.1 N HCl): 500 µg/mL (≈ 2.36 mM)
solubility in water ([2]; water): 800 µg/mL (≈ 3.77 mM)
